# pIC50: −log10 of the molar value.
# Tests used:
# [1] = biological target: T1, human NCX1 (Homo sapiens (Human), UniProt P32418); assay: Inhibition of Ca2+ influx into cells (NCX1 reverse mode), FLIPR Fluo-4 assay; assay type: cell-based; settings: inhibition of NCX1 in reverse mode (Ca2+ influx into cells); read-out: NCX1rv IC50
# Excerpt: (§1) The sodium/calcium exchanger NCX1 can transport calcium ions and sodium ions through the cell membrane. The transport is an exchange of Ca^2+and Na^+in two directions depending on membrane potential and ion gradients. At the first direction, named “forward mode” or “calcium export mode”, Ca^2+is transported out of the cell and Na^+ is transported into the cell. At the other direction, named “reverse mode” or “calcium import mode”, the transport directions are vice versa. The effect of the compounds of the invention on NCX1 was determined in CHO cells stably expressing human NCX1 (gene symbol SLC8A1; cf. WO 2009/115238). The assay is based on the monitoring of intracellular Ca^2+concentrations using a calcium-sensitive fluorescence dye which is detected by means of a FLIPR device (Fluorimetric Imaging Plate Reader, Molecular Devices).
# Assay Technology—Reverse Mode
# The assay is based on the monitoring of intracellular Ca^2+concentrations using the calcium-sensitive dye Fluo-4. CHO cells expressing NCX1 were loaded with the dye by means of the acetoxymethyl ester Fluo-4 AM (Invitrogen, F14202), which is cleaved intracellularly by esterase activity to yield the charged species of free Fluo-4. After an preincubation period with the test compound, Gramicidine (Sigma, G5002) was added. Gramicidine is an ionophor for Na^+ions mediating an increase of intracellular Na^+ions. Consequently, intracellular Na^+ions are exchanged against extracellular Ca^2+ions (Ca^2+influx, reverse mode). The intracellular elevation of Ca^2+ ions was detected by measuring the fluorescence of Fluo-4 at a wavelength of 520 nm by a FLIPR device.
# Briefly, for the reverse mode transport assay 18000 cells per well were seeded into a 96 well microplate (Corning COSTAR 3904) and incubated overnight in culture medium (1× Nut Mix F12 (Ham) (Gibco, 21765-029); 10% (v/v) fetal calf serum (PAA Gold, A15-649); 450 μg/ml Geneticin (Gibco, 10131-027)). A total volume of 100 μl medium per well was used. For the preparation of the FLIPR assay, the culture medium was removed from the plates and 100 μl of dye solution (2 μM Fluo-4 AM; 0.02% (v/v) Pluronic F-127 (20%, Invitrogen, P3000MP); 0.1% (v/v) bovine albumin solution (30% (v/v), Sigma, A9205) in assay buffer (133.8 mM NaCl (Sigma, S5886); 4.7 mM KCl (Sigma, P3911); 1.25 mM MgCl2 (Merck, 1.05833.0250); 3.5 mM CaCl2 (Merck, 1.02083.0250); 5 mM glucose (Sigma, G7021); 10 mM Hepes (Sigma, H4034); 0.01% (v/v) Pluronic F-127 (5%, Sigma, P2443); 2.5 mM Probenecid (Maybridge, SB00915EB); pH 7.4)) were added into each well. The plates were incubated in the dark at room temperature for 80 min. After the incubation period, the dye solution was removed and the wells were washed with 100 μl of assay buffer. Then 80 μl of a solution of the test compound in assay buffer in different concentrations were added into the wells. The plates were incubated at 16° C. for 45 min. Meanwhile a 60 μM solution of Gramicidine in assay buffer (4° C.) was prepared and stored in the wells of a 96 well microplate (96 well microplate, polypropylene, U-shape (Greiner Bio-One, 650201)) at 4° C. until measurement was started. The fluorescence monitoring was performed at 240 measuring points with measurement intervals of 2 sec. After the fifth measuring point, 40 μl of the Gramicidine solution were added to each well of the assay plates to give a final Gramicidine concentration of 20 μM. For the determination of the IC50 values the minimal fluorescence value was subtracted from the maximal fluorescence value for all measuring points. The calculation of the IC50 values via the percentage inhibitions of Ca^2+influx into cells (reverse mode) effected by the test compound was performed in Biost@t Speed 2.0.
# [2] = biological target: T1, human NCX1; assay: Inhibition of Ca2+ efflux out of cells (NCX1 forward mode), FLIPR assay; assay type: cell-based; settings: CHO cells stably expressing human NCX1, Ionomycin 2 μM, read-out: NCX1fw IC50
# Excerpt: as §1
# Assay Technology—Forward Mode
# The assay is based on the monitoring of intracellular Ca^2+concentrations using the PBX Calcium Assay Kit from BD (Becton, Dickinson and Company) with calcium indicator dye 51-9000177BKa (BD, 640177), CHO cells expressing NCX1 were loaded with the dye, and after a preincubation period with the test compound, lonomycin (Calbiochem, 407950) was added. Ionomycin is an ionophor for Ca^2+ions mediating an increase of intracellular Ca^2+ions. Consequently, intracellular Ca^2+ions are exchanged against extracellular Na^+ions (Ca^2+efflux, forward mode). The decrease of intracellular Ca^2+ions was detected by measuring the fluorescence of the calcium indicator dye at a wavelength of 520 nm by a FLIPR device.
# Briefly, similarly as for the reverse mode, for the forward mode transport assay 18000 cells per well were seeded into a 96 well microplate (Corning COSTAR 3904) and incubated overnight in culture medium (cf. above). A total volume of 100 μl medium per well was used. For the preparation of the FLIPR assay, the culture medium was removed from the plates and 100 μl of assay buffer (133.8 mM NaCl (Sigma, S5886); 4.7 mM KCl (Sigma, P3911); 1.25 mM MgCl2 (Merck, 1.05833.0250); 3.5 mM CaCl2 (Merck, 1.02083.0250); 5 mM glucose (Sigma. G7021); 10 mM Hepes (Sigma, H4034); pH 7.4)) were added to each well in a washing step. Assay buffer was removed, and 100 μl of a solution of the test compound in assay buffer in different concentrations were added into the wells. Further, 100 μl of dye solution (0.09% (v/v) calcium indicator dye, 9.1% (v/v) signal enhancer (from PBX Calcium Assay Kit); in assay buffer) were added into each well. The plates were incubated in the dark at room temperature for 60 min. Meanwhile a 10 μM solution of lonomycin in assay buffer (additionally containing 0.05% fetal calf serum (cf. above); 4° C.) was prepared and stored in the wells of a 96 well microplate (96 well microplate, polypropylene, U-shape (Greiner Bio-One, 650201)). The fluorescence monitoring was performed at 60 measuring points with measurement intervals of 2 sec. After the fifth measuring point, 50 μl of the lonomycin solution were added to each well of the assay plate to give a final lonomycin concentration of 2 μM. For the determination of the IC50 values the minimal fluorescence value was subtracted from the maximal fluorescence value for the fifteenth to fifty-fifth measuring points. The calculation of the IC50 values via the percentage inhibitions of Ca^2+efflux out of cells (forward mode) effected by the test compound was performed in Biost@t Speed 2.0. “NCX1fw IC50” in Table 2 means the IC50 value for inhibition of NCX1 in forward mode (in μM (micromol/liter)).
# [3] = test system: Sprague-Dawley rats; assay: In vivo method for determining the effect on heart contractility (left ventricular dp/dtmax) in anesthetized rats; settings: rat, versus solvent control; for change in vivo at 0.1 mg/kg / change in vivo at 0.3 mg/kg / change in vivo at 1 mg/kg: iv, i.v. bolus injection, read-out: Contractility increase (%); for Contractility increase (%): i.v. infusion
# Protocol: B) In vivo Method for Determining the Effect on Heart Contractility Adult male Sprague-Dawley rats (Harlan […], Germany) weighing 340 to 370 g were anesthetized with pentobarbital (100 mg/kg i.p.) and ventilated with a mixture of oxygen (40%) and room air (60%) at a tidal volume of 1 ml/100 g at 60 breaths/min. Body temperature was maintained at 36.5±0.3° C. with a heating lamp and was monitored with a rectal thermo sensor. Systemic blood pressure was measured in the left carotid artery using a pressure transducer (Combitrans; B. Braun Melsungen AG, Melsungen, Germany) connected to a DC-bridge-amplifier (PLUGSYS/ADC Type 663; Harvard Apparatus GmbH, March-Hugstetten, Germany). The electrocardiogram was measured as lead II via subcutaneously placed electrodes connected to a Heart-Rate-Module ([…] Type 669; Harvard Apparatus GmbH, March-Hugstetten, Germany). A micro-tip catheter (2 French, SPR-320; Millar Instruments, Houston, Tex., USA) was placed via the right carotid artery into the left ventricle, and the left ventricular pressure (LVP) and the end diastolic pressure (EDP) were continuously measured. Registration of the hemodynamic data was performed via an analog digital converter by a personal computer using Notocord software (HEM version 3.5). Left ventricular contractility (dp/dtmax) and relaxation (dp/dtmin) were calculated from the LVP signal. For intravenous administration of the test compounds, the left jugular vein was prepared and a PP-50 catheter was inserted. Test compounds were administered either by intravenous bolus injection or by intravenous infusion by means of an infusion pump (Unita; B. Braun Melsungen AG, Melsungen, Germany). […] In a typical experiment, several dosages of the test compound were administered subsequently at increasing doses. Statistical significance of the data obtained with drug vs control experiments, in which solvent was administered, was evaluated with the 2-sided ANOVA test (program Everstat). Increases in left ventricular contractility (percent increase) by example compounds are given in Table 3 in comparison to control experiments in which solvent was administered.
# T1 sequence (P32418 whole entry, looked up): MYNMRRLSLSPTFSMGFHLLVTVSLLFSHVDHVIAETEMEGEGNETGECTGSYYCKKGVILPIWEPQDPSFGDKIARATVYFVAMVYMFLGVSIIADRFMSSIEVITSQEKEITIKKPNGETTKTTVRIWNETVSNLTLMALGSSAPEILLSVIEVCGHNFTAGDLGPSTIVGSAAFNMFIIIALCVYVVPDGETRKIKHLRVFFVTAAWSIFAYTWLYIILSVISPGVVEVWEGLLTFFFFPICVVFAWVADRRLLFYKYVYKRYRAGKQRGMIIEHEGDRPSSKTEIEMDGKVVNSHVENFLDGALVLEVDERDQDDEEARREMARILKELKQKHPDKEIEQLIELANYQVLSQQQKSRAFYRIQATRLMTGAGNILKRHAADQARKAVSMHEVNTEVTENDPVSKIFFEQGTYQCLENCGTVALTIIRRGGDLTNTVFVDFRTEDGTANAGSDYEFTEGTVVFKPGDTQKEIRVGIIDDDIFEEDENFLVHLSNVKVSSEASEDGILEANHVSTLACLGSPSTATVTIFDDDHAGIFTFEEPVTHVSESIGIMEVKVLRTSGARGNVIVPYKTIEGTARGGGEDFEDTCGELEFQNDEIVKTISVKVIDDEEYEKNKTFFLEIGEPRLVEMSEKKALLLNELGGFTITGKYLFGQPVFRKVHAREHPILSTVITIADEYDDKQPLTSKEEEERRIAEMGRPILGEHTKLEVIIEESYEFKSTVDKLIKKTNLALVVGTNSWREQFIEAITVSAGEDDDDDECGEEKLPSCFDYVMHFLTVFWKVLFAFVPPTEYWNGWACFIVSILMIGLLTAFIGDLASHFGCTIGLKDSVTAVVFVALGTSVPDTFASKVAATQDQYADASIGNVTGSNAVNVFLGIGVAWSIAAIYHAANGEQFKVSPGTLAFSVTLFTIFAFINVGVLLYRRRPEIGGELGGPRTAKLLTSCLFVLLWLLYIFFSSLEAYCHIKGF
pIC50 [1],pIC50 [2],Molecule,change in vivo at 0.1 mg/kg [3],change in vivo at 0.3 mg/kg [3],change in vivo at 1 mg/kg [3],Contractility increase (%) ([3]; 0.03 mg/kg/min),Contractility increase (%) ([3]; 0.1 mg/kg/min)
6.40,–,"Cc1csc(CCNCc2cnc(Oc3ccc4c(c3)CCC(c3ccccc3)O4)s2)n1 (stereo not drawn) [compound 151, [2-(4-Methyl-thiazol-2-yl)-ethyl]-[2-(2-phenyl-chroman-6-yloxy)-thiazol-5-ylmethy]-amine]",–,–,–,–,–
6.52,6.46,"CCCNC(=O)c1cnc(Oc2ccc3c(c2)CCC(c2ccccc2C)O3)s1 (stereo not drawn) [Example 330, 2-(2-o-Tolyl-chroman-6-yloxy)-thiazole-5-carboxylic acid propylamide]",50%,86%,161%,–,–
6.30,6.10,"CCCNC(=O)c1cnc(Oc2ccc3c(c2)CCC(c2cc(F)ccc2C)O3)s1 (stereo not drawn) [Example 343, 2-[2-(5-Fluoro-2-methyl-phenyl)-chroman-6-yloxy]-thiazole-5-carboxylic acid propylamide]",20%,25%,39%,–,–
6.30,5.52,"Cc1ccccc1C1CCc2cc(Oc3ncc(CNC(=O)CN4CCCC4=O)s3)ccc2O1 (stereo not drawn) [Example 327, 2-(2-Oxo-pyrrolidin-1-yl)-N-[2-(2-o-tolyl-chroman-6-yloxy)-thiazol-5-ylmethyl]-acetamide]",9%,27%,55%,–,–
6.40,6.15,"Cc1ccc(F)cc1C1CCc2cc(Oc3ncc(C(=O)NCCO)s3)ccc2O1 (stereo not drawn) [Example 342, 2-[2-(5-Fluoro-2-methyl-phenyl)-chroman-6-yloxy]-thiazole-5-carboxylic acid (2-hydroxy-ethyl)-amide]",38%,73%,146%,–,–
7.00,6.70,"Cc1ccccc1[C@@H]1CCc2cc(Oc3ncc(C(=O)NCCO)s3)ccc2O1 [Example 326, 2-((S)-2-o-Tolyl-chroman-6-yloxy)-thiazole-5-carboxylic acid (2-hydroxy-ethyl)-amide]",67%,105%,138%,–,–
–,5.48,"O=C(NC1CC1)c1cnc(Oc2ccc3c(c2)CCC(c2ccccc2)O3)s1 (stereo not drawn) [Example 315, 2-(2-Phenyl-chroman-6-yloxy)-thiazole-5-carboxylic acid cyclopropylamide]",28%,41%,64%,–,–
6.30,5.68,"Cc1ccccc1C1CCc2cc(Oc3nc(C)c(C(=O)NCc4ccno4)s3)ccc2O1 (stereo not drawn) [Example 334, 4-Methyl-2-(2-o-tolyl-chroman-6-yloxy)-thiazole-5-carboxylic acid (isoxazol-5-ylmethyl)-amide]",19%,41%,59%,–,–
4.90,–,"CC[C@H](C)[C@H](NC(=O)c1cnc(Oc2ccc3c(c2)CCC(c2cccnc2)O3)s1)C(=O)O (stereo partly drawn) [compound 270, (23,3S)-3-Methyl-2-{[2-(2-pyridin-3-yl-chroman-6-yloxy)-thiazole-5-carbonyl]-amino}-pentanoic acid]",–,–,–,–,–
–,–,"Cc1ccccc1[C@@H]1CCc2cc(Oc3ncc(C(=O)NCCOP(=O)([O-])[O-])s3)ccc2O1.[Na+].[Na+] [Example 345, Phosphoric acid mono-(2-{[2-((S)-2-o-tolyl-chroman-6-yloxy)-thiazole-5-carbonyl]-amino}-ethyl)ester disodium salt]",–,–,–,32%,85%

Molecule,pIC50 [1],pIC50 [2],change in vivo at 0.1 mg/kg [3],change in vivo at 0.3 mg/kg [3],change in vivo at 1 mg/kg [3],Contractility increase (%) ([3]; 0.03 mg/kg/min),Contractility increase (%) ([3]; 0.1 mg/kg/min)
"2-[2-(2,6-Dimethyl-phenyl)-chroman-6-yloxy]-thiazole-5-carboxylic acid [2-(2-oxo-imidazolidin-1-yl)-ethyl]-amide [compound 347]",5.82,–,–,–,–,–,–

# From US8912224B2, “Substituted 2-(chroman-6-yloxy)-thiazoles and their use as pharmaceuticals” (Sanofi, priority 2011, dated 2014)
